Experimental data from ChEMBL document CHEMBL1201862, “PubChem BioAssay data set” (2004).
Active and inactive are the calls of the source.

Experiments:
[1] = target: T1, Bcl-2-related protein A1 (Mus musculus, UniProt Q07440); format: functional;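 note: confirmatory dose–response counterscreen on Bfl-1, used to check hits from a UBC13 polyubiquitin inhibitor campaign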
T1 sequence (Q07440 whole entry): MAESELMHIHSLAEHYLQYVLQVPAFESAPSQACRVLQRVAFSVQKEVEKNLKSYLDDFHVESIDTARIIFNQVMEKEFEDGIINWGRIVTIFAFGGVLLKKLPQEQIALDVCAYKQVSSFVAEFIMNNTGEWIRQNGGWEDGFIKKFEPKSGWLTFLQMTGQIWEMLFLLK

[2] = target: T2, Ubiquitin-conjugating enzyme E2 N (Homo sapiens, UniProt P61088); format: functional
T2 sequence (P61088 whole entry): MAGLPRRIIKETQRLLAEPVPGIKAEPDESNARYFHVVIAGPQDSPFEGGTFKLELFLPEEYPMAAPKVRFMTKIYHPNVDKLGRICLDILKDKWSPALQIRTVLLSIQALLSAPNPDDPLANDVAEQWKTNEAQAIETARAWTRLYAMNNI

[3] = target: T2, Ubiquitin-conjugating enzyme E2 N; format: functional; remark: listed apart in the source
[4] = target: DNA dC->dU-editing enzyme APOBEC-3A (Homo sapiens, UniProt P31941); experiment: Dose Response confirmation of small molecule APOBEC3A DNA Deaminase Inhibitors via a fluorescence-based single-stranded DNA deaminase assay. [Related pubchem assays (depositor defined):AID493011, AID493024]; format: functional
[5] = target: DNA dC->dU-editing enzyme APOBEC-3G (Homo sapiens, UniProt Q9HC16); format: functional;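 note: Dose-response counterscreen measuring inhibition of APOBEC3G DNA deaminase activity, run while confirming APOBEC3A inhibitors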
[6] = target: Glyceraldehyde-3-phosphate dehydrogenase (Homo sapiens, UniProt P04406)
[7] = target: T3, Alkaline phosphatase, tissue-nonspecific isozyme (Homo sapiens, UniProt P05186); experiment: potency against alkaline phosphatase TNAP – biochemical, luminescent, dose response, SAR follow-up (AID 1056)
T3 sequence (P05186 whole entry): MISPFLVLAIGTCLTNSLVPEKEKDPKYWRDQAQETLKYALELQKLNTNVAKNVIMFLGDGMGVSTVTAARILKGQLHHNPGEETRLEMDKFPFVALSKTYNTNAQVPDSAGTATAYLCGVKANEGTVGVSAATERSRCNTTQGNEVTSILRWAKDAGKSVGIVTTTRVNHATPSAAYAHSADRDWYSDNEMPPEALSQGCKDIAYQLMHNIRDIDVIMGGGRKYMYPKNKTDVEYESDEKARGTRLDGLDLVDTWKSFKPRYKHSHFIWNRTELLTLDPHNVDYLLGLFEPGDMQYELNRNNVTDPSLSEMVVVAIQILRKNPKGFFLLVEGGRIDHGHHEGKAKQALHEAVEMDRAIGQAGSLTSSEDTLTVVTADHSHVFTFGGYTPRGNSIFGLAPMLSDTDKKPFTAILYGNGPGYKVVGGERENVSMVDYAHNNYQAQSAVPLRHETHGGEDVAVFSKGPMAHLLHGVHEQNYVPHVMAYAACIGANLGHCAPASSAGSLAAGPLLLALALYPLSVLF

[8] = system: HEK293; experiment: inhibition of NOD1-driven NF-kB reporter – cell-based, luminescence, uHTS, primary screen (AID 1578); format: functional; settings: Homo sapiens
[9] = system: BJ; experiment: BJ-TERT fibroblast viability loss – cell-based, RAS-independent, luminescence, dose response (AID 1933); format: functional; settings: Homo sapiens
[10] = system: HEK293; experiment: cells; format: functional, cell-based; settings: Homo sapiens
[11] = system: BJ; experiment: cells; format: functional, cell-based; settings: Homo sapiens
[12] = system: HEK293; experiment: cells; format: functional, cell-based; settings: Homo sapiens; remark: listed apart in the source
[13] = target: Nucleotide-binding oligomerization domain-containing protein 2 (Homo sapiens, UniProt Q9HC29); experiment: inhibition of NOD2-driven NF-kB reporter – cell-based, luminescence, uHTS, HEK293 (AID 1566); format: functional
[14] = system: HEK293; experiment: NOD2 signaling inhibitors in MDP-stimulated cells, cell-based, uHTS, luminescence (AID 2001); format: functional; settings: Homo sapiens
[15] = system: HEK293; experiment: cells; format: functional, cell-based; settings: Homo sapiens; remark: listed apart in the source
[16] = microbe, parasite or virus in culture; format: functional; settings: Mycobacterium tuberculosis
[17] = viability of PTEN-deleted HCT116 cells – cell-based, HCT116 PTEN knockout, dose response (AID 1047); format: functional;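 note: HCT116 colon tumor cells with PTEN knocked out; cells exposed to compound for 60 hours before readout; potency for loss of cell viability measured by luminescence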
[18] = viability of HCT116 lacking mutant beta-catenin – cell-based, human colon tumor, dose response (AID 1045); format: functional;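 note: HCT116 colon tumor cells with beta catenin knocked out; cells exposed to compound for 60 hours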
[19] = system: BJ; experiment: BJ-TERT-LT-ST fibroblast viability loss – cell-based, RAS-independent, luminescence, dose response (AID 1935); format: functional; settings: Homo sapiens;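 note: BJ fibroblasts immortalized with TERT plus LT and ST oncogenes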
[20] = DRD fibroblast viability loss – cell-based, non-viral oncogenic, luminescence, dose response (AID 1934); format: functional; settings: Homo sapiens
[21] = Luminescence Cell-Based Dose Retest to Confirm Inhibitors of Cancer Stem Cells. [Related pubchem assays (depositor defined):AID2717, AID2721]; format: functional; settings: Homo sapiens
[22] = target: 1-acylglycerol-3-phosphate O-acyltransferase ABHD5/Perilipin-5 (Homo sapiens, UniProt Q00G26+Q8WTS1); experiment: Luminescence-based biochemical high throughput dose response assay for inhibitors of the interaction of the lipase co-activator protein, abhydrolase domain containing 5 (ABHD5) with perilipin-5 (MLDP; PLIN5) (2K validation set). [Related pubchem assays (depositor defined):AID493035, AID493241]
[23] = target: Perilipin-1/ABHD5 (Homo sapiens, UniProt O60240+Q8WTS1); experiment: Luminescence-based biochemical high throughput dose response assay for inhibitors of the interaction of the lipase co-activator protein, abhydrolase domain containing 5 (ABHD5) with perilipin-1 (PLIN1) (2K validation set). [Related pubchem assays (depositor defined):AID493027, AID493057]
[24] = target: T4, Replicative DNA helicase DnaB (Mycobacterium tuberculosis, UniProt P9WMR3); experiment: DnaB intein splicing inhibitors, dose response, biochemical, cell-free fluorescence (AID 449749); format: functional
T4 sequence (P9WMR3 whole entry): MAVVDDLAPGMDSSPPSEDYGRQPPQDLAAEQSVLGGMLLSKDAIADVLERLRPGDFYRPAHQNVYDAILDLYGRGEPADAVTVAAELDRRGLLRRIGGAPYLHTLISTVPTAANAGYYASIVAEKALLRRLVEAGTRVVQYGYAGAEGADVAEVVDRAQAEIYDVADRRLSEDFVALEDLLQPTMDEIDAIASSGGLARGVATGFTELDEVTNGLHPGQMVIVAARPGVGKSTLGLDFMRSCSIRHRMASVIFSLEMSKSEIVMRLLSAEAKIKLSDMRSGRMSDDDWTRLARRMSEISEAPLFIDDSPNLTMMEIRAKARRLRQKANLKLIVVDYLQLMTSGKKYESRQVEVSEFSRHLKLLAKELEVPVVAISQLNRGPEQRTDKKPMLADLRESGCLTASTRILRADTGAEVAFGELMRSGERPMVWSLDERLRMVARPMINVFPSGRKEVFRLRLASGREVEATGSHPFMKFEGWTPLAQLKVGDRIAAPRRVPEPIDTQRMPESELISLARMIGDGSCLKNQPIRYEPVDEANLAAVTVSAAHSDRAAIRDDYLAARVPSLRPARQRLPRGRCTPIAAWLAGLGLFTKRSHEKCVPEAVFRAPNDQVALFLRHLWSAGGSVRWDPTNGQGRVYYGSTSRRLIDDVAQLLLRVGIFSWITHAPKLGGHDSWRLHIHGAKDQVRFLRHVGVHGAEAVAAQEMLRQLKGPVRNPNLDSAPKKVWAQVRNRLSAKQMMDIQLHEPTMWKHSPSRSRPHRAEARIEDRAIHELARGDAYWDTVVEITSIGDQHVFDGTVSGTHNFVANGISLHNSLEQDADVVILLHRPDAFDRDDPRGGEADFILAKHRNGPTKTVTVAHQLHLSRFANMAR

[25] = system: BJ; experiment: growth inhibition of engineered Ras-driven BJ cells – cell-based, alamar blue fluorescence, cherrypicked samples, dose response (AID 2631); format: functional; settings: Homo sapiens;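 note: confirmatory dose-response assay in RAS-dependent BJ fibroblasts engineered with TERT, LT and ST, with cytotoxicity read by fluorescence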
[26] = target: T5, Protein RecA (Mycobacterium tuberculosis, UniProt P9WHJ3); experiment: Fluorescence Cell-Free Homogeneous Dose Retest to Identify Inhibitors of RecA-Intein Splicing Activity. [Related pubchem assays (depositor defined):AID2097, AID2223, AID489010, AID492950]; format: functional
T5 sequence (P9WHJ3 whole entry): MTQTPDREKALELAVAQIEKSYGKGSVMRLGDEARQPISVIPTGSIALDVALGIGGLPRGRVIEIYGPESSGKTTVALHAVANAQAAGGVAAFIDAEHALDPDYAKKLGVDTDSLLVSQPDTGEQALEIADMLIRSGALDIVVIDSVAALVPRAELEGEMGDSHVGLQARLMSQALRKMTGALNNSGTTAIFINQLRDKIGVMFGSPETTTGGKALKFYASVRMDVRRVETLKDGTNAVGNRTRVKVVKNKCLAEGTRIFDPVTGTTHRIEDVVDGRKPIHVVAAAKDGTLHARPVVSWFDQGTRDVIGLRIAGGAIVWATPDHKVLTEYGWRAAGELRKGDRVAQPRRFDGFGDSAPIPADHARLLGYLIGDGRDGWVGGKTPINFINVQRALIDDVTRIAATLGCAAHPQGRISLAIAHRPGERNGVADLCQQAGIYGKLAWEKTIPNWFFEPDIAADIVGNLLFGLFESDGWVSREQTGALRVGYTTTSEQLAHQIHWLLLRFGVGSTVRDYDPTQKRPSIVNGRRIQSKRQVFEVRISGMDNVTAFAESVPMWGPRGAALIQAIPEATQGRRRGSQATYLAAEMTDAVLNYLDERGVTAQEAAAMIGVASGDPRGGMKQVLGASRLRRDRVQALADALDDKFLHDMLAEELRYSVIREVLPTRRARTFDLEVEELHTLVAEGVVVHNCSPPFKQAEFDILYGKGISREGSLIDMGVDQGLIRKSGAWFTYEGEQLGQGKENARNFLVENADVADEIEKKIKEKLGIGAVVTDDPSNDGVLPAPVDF

[27] = target: Intestinal-type alkaline phosphatase (Mus musculus, UniProt P24822); experiment: PubChem AID 488785; format: functional
[28] = target: T3, Alkaline phosphatase, tissue-nonspecific isozyme; experiment: TNAP enzyme inhibition by screening hits, dose response, selectivity assay for mouse IAP inhibitor project, biochemical, human TNAP, uHTS hits (AID 488906); format: functional
[29] = target: Intestinal-type alkaline phosphatase (Homo sapiens, UniProt P09923); experiment: inhibition of human intestinal alkaline phosphatase – biochemical, dose response (AID 488876); format: functional
Intestinal-type alkaline phosphatase (Homo sapiens, UniProt P09923), sequence (P09923 whole entry): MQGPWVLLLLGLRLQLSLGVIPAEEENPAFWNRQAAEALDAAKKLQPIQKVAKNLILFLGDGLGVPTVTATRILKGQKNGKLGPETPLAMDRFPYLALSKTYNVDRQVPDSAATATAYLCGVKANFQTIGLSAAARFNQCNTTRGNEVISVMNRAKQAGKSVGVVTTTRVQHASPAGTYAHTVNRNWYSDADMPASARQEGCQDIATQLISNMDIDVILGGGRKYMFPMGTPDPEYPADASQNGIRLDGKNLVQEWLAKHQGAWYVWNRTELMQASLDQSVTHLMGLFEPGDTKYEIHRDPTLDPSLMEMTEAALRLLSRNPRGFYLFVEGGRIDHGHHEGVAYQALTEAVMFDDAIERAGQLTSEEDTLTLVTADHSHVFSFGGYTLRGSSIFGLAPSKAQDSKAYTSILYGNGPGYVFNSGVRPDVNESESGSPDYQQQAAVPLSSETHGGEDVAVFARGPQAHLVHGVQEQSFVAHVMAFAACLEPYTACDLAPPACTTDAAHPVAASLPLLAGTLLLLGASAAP

DNA dC->dU-editing enzyme APOBEC-3A, sequence (P31941 whole entry): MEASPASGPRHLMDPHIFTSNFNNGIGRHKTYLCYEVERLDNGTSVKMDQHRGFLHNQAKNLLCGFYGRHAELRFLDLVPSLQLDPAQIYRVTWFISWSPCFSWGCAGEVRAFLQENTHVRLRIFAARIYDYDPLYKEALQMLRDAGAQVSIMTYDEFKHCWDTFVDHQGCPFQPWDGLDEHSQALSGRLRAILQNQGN
DNA dC->dU-editing enzyme APOBEC-3G, sequence (Q9HC16 whole entry): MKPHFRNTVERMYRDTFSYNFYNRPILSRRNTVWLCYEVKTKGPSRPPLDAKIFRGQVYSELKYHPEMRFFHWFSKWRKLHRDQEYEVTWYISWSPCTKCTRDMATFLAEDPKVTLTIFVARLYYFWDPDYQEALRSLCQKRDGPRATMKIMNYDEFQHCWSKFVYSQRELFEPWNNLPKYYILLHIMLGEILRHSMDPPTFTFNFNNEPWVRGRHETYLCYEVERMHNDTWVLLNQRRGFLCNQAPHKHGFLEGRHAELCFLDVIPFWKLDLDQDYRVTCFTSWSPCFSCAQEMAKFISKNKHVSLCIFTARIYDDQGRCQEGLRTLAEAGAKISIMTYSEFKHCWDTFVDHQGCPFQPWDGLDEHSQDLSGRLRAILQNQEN
1-acylglycerol-3-phosphate O-acyltransferase ABHD5/Perilipin-5, sequence (Q00G26 whole entry, the tested form may be a part): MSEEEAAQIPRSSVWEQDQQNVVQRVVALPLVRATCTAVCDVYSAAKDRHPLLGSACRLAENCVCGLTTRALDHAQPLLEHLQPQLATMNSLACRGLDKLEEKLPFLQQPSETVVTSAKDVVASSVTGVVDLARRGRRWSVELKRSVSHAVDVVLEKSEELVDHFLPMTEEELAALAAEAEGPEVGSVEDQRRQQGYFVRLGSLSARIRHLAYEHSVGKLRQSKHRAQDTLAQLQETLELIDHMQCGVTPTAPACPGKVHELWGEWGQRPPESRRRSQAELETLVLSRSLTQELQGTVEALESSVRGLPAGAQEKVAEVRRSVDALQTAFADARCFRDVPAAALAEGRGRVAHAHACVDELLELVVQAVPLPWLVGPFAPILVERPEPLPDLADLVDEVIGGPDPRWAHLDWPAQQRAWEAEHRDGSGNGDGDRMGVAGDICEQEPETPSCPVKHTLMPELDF
1-acylglycerol-3-phosphate O-acyltransferase ABHD5/Perilipin-5, sequence (Q8WTS1 whole entry, the tested form may be a part): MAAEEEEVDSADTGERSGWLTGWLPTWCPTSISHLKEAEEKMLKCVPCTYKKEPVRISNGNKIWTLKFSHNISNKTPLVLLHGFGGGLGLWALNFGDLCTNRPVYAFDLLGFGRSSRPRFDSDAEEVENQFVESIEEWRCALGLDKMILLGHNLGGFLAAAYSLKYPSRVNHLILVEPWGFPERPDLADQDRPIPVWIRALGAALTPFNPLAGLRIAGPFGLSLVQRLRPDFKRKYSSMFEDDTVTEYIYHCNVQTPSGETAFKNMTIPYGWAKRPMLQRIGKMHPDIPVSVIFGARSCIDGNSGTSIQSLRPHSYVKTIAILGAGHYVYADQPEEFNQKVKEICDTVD
Perilipin-1/ABHD5, sequence (Q8WTS1 whole entry, the tested form may be a part): as above
Perilipin-1/ABHD5, sequence (O60240 whole entry, the tested form may be a part): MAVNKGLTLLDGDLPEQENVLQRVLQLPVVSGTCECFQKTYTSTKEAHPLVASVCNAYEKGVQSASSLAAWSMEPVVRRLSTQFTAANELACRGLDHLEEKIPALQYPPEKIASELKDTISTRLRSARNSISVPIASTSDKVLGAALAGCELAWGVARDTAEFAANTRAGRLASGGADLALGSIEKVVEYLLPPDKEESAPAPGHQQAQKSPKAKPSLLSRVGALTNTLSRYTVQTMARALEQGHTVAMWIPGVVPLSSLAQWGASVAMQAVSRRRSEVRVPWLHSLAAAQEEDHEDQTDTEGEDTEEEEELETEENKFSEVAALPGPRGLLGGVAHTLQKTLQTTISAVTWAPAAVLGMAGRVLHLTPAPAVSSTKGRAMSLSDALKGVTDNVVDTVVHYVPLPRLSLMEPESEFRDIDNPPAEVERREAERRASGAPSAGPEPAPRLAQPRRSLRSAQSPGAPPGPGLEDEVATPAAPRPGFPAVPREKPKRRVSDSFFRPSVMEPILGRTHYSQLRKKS
Glyceraldehyde-3-phosphate dehydrogenase, sequence (P04406 whole entry): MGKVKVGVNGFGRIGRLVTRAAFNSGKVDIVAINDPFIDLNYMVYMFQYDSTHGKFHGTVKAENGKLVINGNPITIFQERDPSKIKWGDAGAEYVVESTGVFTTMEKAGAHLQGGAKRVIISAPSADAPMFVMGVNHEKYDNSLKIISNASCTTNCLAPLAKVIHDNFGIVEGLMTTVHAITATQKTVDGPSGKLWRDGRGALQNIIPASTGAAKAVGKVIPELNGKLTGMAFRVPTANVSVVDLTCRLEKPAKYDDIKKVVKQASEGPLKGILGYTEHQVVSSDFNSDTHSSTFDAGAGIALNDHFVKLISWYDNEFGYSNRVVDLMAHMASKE
Intestinal-type alkaline phosphatase (Mus musculus, UniProt P24822), sequence (P24822 whole entry): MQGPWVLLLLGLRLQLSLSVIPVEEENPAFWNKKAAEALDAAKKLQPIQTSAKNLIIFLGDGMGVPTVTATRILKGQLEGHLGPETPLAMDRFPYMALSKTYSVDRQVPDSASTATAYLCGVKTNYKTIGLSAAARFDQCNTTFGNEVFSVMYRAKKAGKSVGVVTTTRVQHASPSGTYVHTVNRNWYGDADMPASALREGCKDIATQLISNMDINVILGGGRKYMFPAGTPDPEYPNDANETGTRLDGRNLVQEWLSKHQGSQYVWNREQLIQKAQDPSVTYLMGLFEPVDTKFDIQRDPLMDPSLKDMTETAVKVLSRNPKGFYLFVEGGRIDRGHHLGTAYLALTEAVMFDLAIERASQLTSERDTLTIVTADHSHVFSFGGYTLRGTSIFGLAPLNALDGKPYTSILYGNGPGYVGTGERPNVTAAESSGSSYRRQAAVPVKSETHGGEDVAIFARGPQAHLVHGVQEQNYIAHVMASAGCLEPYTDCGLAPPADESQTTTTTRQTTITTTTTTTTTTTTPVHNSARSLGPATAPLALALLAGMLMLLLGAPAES
Nucleotide-binding oligomerization domain-containing protein 2, sequence (Q9HC29 whole entry, the tested form may be a part): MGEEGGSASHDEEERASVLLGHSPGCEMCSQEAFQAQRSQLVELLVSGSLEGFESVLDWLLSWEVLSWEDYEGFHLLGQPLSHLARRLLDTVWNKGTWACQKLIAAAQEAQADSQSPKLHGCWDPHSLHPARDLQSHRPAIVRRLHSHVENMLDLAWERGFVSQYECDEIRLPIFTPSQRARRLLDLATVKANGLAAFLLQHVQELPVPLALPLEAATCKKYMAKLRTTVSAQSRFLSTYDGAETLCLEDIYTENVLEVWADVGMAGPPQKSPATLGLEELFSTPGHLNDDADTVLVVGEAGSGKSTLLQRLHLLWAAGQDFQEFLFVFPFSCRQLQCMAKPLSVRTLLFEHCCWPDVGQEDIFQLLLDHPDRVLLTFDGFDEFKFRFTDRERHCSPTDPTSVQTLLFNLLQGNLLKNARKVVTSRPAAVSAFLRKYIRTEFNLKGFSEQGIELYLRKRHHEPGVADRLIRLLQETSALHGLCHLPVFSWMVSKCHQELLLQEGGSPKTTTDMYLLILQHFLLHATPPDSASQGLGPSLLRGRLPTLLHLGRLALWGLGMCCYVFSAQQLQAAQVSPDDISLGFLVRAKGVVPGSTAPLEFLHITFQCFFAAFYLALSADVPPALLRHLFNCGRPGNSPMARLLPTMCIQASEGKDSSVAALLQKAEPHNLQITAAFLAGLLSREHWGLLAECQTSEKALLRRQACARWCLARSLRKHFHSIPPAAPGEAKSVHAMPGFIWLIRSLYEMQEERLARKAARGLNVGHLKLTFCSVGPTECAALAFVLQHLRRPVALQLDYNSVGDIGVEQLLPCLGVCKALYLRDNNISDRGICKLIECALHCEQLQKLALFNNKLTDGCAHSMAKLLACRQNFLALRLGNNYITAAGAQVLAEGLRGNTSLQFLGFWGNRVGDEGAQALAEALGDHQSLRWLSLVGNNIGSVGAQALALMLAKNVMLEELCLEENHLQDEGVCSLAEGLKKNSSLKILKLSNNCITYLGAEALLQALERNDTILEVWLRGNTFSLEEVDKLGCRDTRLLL

COc1ccc(/C=N\NC(=O)c2sc(N)nc2C)cc1OC
inactive: IC50 [1] > 20 µM
active: IC50 [2] 0.507 µM | IC50 [3] 0.548 µM

CC1=CC(C)(C)[N+](C)=CN1c1ccccc1
active: IC50 [4] 2.19 µM | IC50 [5] 4.28 µM

O=S(=O)(Nc1ccc2ccccc2c1)c1ccc(Br)cc1OC(F)(F)F
inactive: IC50 [7] > 10 µM
inconclusive: IC50 [6] > 10 µM

COc1ccc(CN(CCC(c2ccccc2)c2ccc(OC(C)C)cc2)C(=O)CCl)cc1OC (stereo unspecified)
active: EC50 [8] 17.9 µM | EC50 [9] 0.605 µM | IC50 [10] 6.94 µM | EC50 [11] 4.25 µM | IC50 [12] 10.6 µM | CC50 [16] 1.49 µM | EC50 [17] 6.29 µM | EC50 [18] 6.08 µM | EC50 [20] 3.74 µM | AC50 [21] 1.25 µM | IC50 [22] 3.57 µM | IC50 [23] 3.17 µM | AC50 [24] 0.335 µM | EC50 [25] 3.43 µM | EC50 [26] 0.333 µM
inactive: EC50 [13] > 20 µM | IC50 [14] 13.9 µM | IC50 [15] > 20 µM
inconclusive: EC50 [19] 4.09 µM

COc1ccc(Cl)cc1NC(=S)NCCC(c1ccccc1)c1ccccc1
active: IC50 [27] 11.3 µM | IC50 [28] 23.9 µM | IC50 [29] 15.9 µM

CCc1nc(-c2ccc(C)nc2OC)no1
active: IC50 [4] 3.49 µM | IC50 [5] 4.74 µM
